For assay [1], the target named is GATA4 (expression plasmid, luciferase reporter assay) (human) (UniProt P43694). The experiment in a line: cell-based or functional assay.
For assay [2], the system named is adult tail-tip fibroblasts (TTFs) from αMHC-GFP mice. The assay can be described thus: Human retroviral ORF cDNA library screen for AGHMT-mediated cardiac reprogramming (high-throughput imaging of αMHC-GFP and cTnT). The assay is classed as cell-based, mouse. The settings on record: for cTnT Z-score / αMHC Z-score: individual cDNA expressed together with 5F (AGHMT), 9 days, Z-score ≥2 activator, ≤−2 inhibitor; for αMHC Z-score: αMHC-GFP; for 5F-mediated cardiac reprogramming (αMHC-GFP, cTnT immunocytochemistry): virus added to 5F (AGHMT), 9 days post-infection. The source says:
Isolation of mouse tail-tip fibroblast. For isolation of adult mouse tail-tip fibroblasts, tails were cut from 8-12 weeks old adult wild-type or αMHC-GFP mouse and were minced into […] with razor blades after peeling off the superficial dermis. The minced tails were placed in fibroblast growth medium (DMEM supplemented with 10% FBS and 1% (vol/vol) penicillin/streptomycin). Tail-tip fibroblasts migrated out from the explants within 1 week and were passaged one time before use.
Construction of human retroviral ORFs library. Gateway-compatible Human ORFs pEntry vectors were purchased from Thermo Fisher Scientific. Gateway-compatible retroviral destination vector, pMXs-gw, was a gift from Shinya Yamanaka (Addgene plasmid #18656) (Takahashi, 2006). The inventors transferred each ORF individually into pMXs-gw by performing site-specific LR recombination using Gateway LR Clonase II Enzyme Mix kit (Thermo Fisher Scientific).
(§1) Retroviruses production, cellular reprogramming and treatment. For retroviruses production, Platinum E cells were seeded into culture dishes (1×10^5 cells/cm2) one day before transfection in DMEM supplemented with 10% FBS and 1% penicillin/streptomycin. Cells reached ˜80% confluency on the day of transfection. DNA plasmids were transfected into Platinum E cells using FuGENE 6 transfection reagent. Twenty-four hours after transfection, wild type or αMHC-GFP tail-tip fibroblasts were seeded into culture dishes or plates that were precoated with SureCoat (Cellutron) for one hour at a density of 6×10^4/cm^2. Forty-eight hours after transfection, polybrene was added to viral medium that was filtered through a 0.45-μm filter at a concentration of […]. The mixture replaced the growth medium in the cell culture plate with tail-tip fibroblasts. The viral infection was serially repeated twice. Twenty-four hours after the second infection, the viral medium was replaced with induction medium, composed of DMEM/199 (4:1), 10% conditioned medium obtained from neonatal rat cardiomyocyte culture, 10% FBS, 5% horse serum, 1% penicillin/streptomycin, 1% nonessential amino acids, 1% essential amino acids, 1% B-27, 1% insulin-selenium-transferrin, 1% vitamin mixture, and 1% sodium pyruvate (Invitrogen). Small molecule treatments were used throughout the reprogramming process 1004 dexamethasone (Dex), and 1004 nabumetone (Sigma).
Immunocytochemistry. For immunocytochemistry, cells were fixed in 4% paraformaldehyde for 15 min and permeabilized with 0.1% Triton-X in room temperature. Cells were washed with PBS for three times followed by blocking with 10% goat serum for 1 hr. Cells then were incubated with mouse monoclonal anti-cardiac Troponin T (cTnT) antibody (Thermo Scientific) at 1:500 dilutions and rabbit anti-GFP antibody (Thermo Scientific) at 1:500 dilutions in 5% Goat serum for 1 hr. After washing with PBS three times, Cells then were incubated with donkey anti-mouse alexa fluor 647 (Invitrogen) at 1:500 and goat anti-rabbit Alexa fluor 488 at 1:500 (Invitrogen).
Identification of activators and inhibitors of cardiac reprogramming in adult fibroblasts. The inventors' previously optimized cardiac reprogramming protocol with five factors (AGHMT, also called 5F) was able to reprogram ˜3% efficiency of adult TTFs to iCMs as measured by activation of a cardiac-specific αMHC-GFP transgene and cardiac troponin T (cTnT) immunostaining (Zhou et al., 2015). To identify additional regulators of cardiac reprogramming, the inventors created a retroviral expression library consisting of 1,052 open reading frame (ORF) cDNAs representing 786 human transcription factor, cytokine, epigenetic regulator and nuclear receptor genes (Table 51). The inventors screened this expression library for activators and inhibitors of cardiac reprogramming by expressing individual cDNAs together with 5F in isolated TTFs from αMHC-GFP mice, as schematized in FIG. 1A. […]

Assay [3] concerns fibroblasts. The settings on record: added to reprogramming cocktail (GMT); cited from earlier work.
The subject of assay [4] is 5F-reprogrammed TTFs. The experiment in a line: q-PCR of inflammatory and cardiac markers in 5F-reprogrammed TTFs treated with anti-inflammatory drugs. The assay is classed as cell-based, mouse. Conditions: drug 10 μM added to 5F, 7 days. The method, then:
as §1, with “Small molecule treatments were used throughout the reprogramming process 1004 dexamethasone (Dex), and 1004 nabumetone (Sigma).” left out
Quantitative mRNA measurement. […]

The subject of assay [5] is 5F-reprogrammed adult αMHC-GFP transgenic TTFs. The experiment in a line: Immunocytochemistry and flow cytometry of αMHC-GFP and cTnT in 5F-reprogrammed TTFs treated with anti-inflammatory drugs. The assay is classed as cell-based, mouse. Conditions: drug added to 5F, 7 days. The procedure: Retroviruses production, cellular reprogramming and treatment. For retroviruses production, Platinum E cells were seeded into culture dishes (1×10^5 cells/cm2) one day before transfection in DMEM supplemented with 10% FBS and 1% penicillin/streptomycin. Cells reached ˜80% confluency on the day of transfection. DNA plasmids were transfected into Platinum E cells using FuGENE 6 transfection reagent. Twenty-four hours after transfection, wild type or αMHC-GFP tail-tip fibroblasts were seeded into culture dishes or plates that were precoated with SureCoat (Cellutron) for one hour at a density of 6×10^4/cm^2. Forty-eight hours after transfection, polybrene was added to viral medium that was filtered through a 0.45-μm filter at a concentration of […]. The mixture replaced the growth medium in the cell culture plate with tail-tip fibroblasts. The viral infection was serially repeated twice. […]
Flow Cytometry. […] Cells were washed with Perm/Wash buffer, and then analyzed using FACS Caliber (BD Sciences) and FlowJo software. […]
A general note: Flow cytometry measures light scatter and fluorescence of single cells or particles in a stream.

The target of assay [6] is T1, Flag-epitope tag ZNF281 fusion protein (human, UniProt Q9Y2X9 1-895).
T1 construct: Expressed in transfected HEK293 cells and tested in cell lysate; also called FLAG-tagged ZNF281; Flag-tagged ZNF281
T1 sequence: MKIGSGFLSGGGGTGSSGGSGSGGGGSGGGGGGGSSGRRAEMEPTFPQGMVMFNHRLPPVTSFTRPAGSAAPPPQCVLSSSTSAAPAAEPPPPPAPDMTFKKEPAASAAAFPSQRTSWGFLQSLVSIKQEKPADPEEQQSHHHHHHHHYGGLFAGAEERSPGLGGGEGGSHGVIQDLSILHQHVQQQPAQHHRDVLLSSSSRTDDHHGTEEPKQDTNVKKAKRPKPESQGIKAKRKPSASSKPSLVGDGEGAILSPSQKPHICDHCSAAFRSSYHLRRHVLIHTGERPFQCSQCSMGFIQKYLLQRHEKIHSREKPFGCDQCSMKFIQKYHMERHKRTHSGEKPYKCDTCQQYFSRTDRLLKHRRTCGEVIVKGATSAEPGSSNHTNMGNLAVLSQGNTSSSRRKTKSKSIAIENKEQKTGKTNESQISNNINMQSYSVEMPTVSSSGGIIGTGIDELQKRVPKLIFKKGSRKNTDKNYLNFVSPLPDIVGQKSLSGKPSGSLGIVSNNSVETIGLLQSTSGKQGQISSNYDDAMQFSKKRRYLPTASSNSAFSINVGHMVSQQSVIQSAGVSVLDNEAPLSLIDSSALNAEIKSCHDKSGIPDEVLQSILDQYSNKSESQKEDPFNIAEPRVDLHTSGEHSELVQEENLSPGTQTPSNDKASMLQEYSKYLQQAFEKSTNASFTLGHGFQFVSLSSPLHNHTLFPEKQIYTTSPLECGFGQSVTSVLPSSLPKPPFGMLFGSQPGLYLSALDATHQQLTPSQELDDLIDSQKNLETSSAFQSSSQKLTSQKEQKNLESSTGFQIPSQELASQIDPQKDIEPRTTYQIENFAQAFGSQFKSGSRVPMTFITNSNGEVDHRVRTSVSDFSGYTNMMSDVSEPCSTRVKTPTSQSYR
The assay can be described thus: co-immunoprecipitation from transfected HEK293 cells (anti-FLAG IP, anti-Myc blot). The procedure: FIGS. 6A-F. ZNF281 interacts with GATA4 to synergistically activate cardiac genes. (FIG. 6A) Co-immunoprecipitation assays were performed using HEK293 cells transfected with equal amounts of plasmid DNA encoding Myc-tagged GATA4, HAND2, MEF2c, or TBX5 and/or Flag-tagged ZNF281. IP, immunoprecipitation; IB, immunoblot. (FIG. 6B) Luciferase reporter assays were performed using HEK293 cells transfected with equal amounts of ZNF281 and/or GATA4 expression plasmids, as indicated, along with αMHC-luciferase reporter plasmid. (FIG. 6C) Heat maps showing ChIP-seq data for H3K27ac in adult mouse heart, and ZNF281 and GATA4 binding in reprogrammed TTFs at ±5 kB around the peak center. ChIP-seq experiments were performed using TTFs infected with 6F for 2 days. (FIG. 6D) ZNF281 binding motif enriched within ZNF281 binding peaks. (FIG. 6E) GATA4 binding motif enriched within GATA4 binding peaks. (FIG. 6F) Venn diagram showing the number of overlapping peaks between Heart H3K27ac, ZNF281 and GATA4. *P<0.05
Immunoprecipitation and Western Blot Analysis. Flag-epitope tag ZNF281 fusion protein were co-expressed with myc-epitope tag fusion GATA4, HAND2, MEF2C or TBX5 in HEK293 cells for 48 hours. […] The final elution and the input obtained before the immunoprecipitation was analyzed by SDS-PAGE western blot using a mouse monoclonal anti-Myc antibody (Novex) or mouse monoclonal anti-FLAG antibody (Sigma).

GATA4 (expression plasmid, luciferase reporter assay) (human), sequence (P43694 whole entry): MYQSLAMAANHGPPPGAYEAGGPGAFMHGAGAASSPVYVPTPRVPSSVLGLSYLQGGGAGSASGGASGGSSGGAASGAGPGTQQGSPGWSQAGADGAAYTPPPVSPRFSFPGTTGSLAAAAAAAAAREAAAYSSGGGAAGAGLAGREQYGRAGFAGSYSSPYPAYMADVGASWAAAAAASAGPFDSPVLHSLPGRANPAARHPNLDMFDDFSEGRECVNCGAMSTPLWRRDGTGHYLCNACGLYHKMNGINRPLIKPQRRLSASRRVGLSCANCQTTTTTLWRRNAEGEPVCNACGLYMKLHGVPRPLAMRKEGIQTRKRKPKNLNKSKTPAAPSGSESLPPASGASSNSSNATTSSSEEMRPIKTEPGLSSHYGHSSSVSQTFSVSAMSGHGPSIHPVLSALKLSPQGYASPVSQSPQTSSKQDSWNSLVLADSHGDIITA

Turning to “ZNF281 (expression plasmid, luciferase reporter assay) (from UniProt Q9Y2X9 1-895)”, the αMHC-Luciferase reporter activation in assay [1] was 15 fold.
As for Achaete-scute homolog 1 [ASCL1], in assay [2], the “cTnT Z-score” value came out at 3.9; the “αMHC Z-score” value was 0.0; the “5F-mediated cardiac reprogramming (αMHC-GFP, cTnT immunocytochemistry)” value (“5F-mediated cardiac reprogramming” below) is recorded as “greatly enhanced reprogramming”.
Regarding forkhead box protein A3 [FOXA3], in assay [2], the “cTnT Z-score” value is −3.1; the “αMHC Z-score” value is −4.3; the “5F-mediated cardiac reprogramming” value is listed as “practically abolished”.
As for BMP2, in assay [2], the “cTnT Z-score” value is 0.5 and the “αMHC Z-score” value is listed as −3.2.
Consider PHD finger protein 7 [PHF7], for which, in assay [2], the “cTnT Z-score” value came out at 9.7; the “αMHC Z-score” value is recorded as 7.4; the “5F-mediated cardiac reprogramming” value is “enhanced reprogramming”.
`C[C@H](NC(=O)Cc1cc(F)cc(F)c1)C(=O)N[C@H](C(=O)OC(C)(C)C)c1ccccc1` [DAPT]: the cardiac reprogramming result in assay [3] was “enhance cardiac reprogramming”.
`COc1ccc2cc(CCC(C)=O)ccc2c1` [nabumetone]: the “expression of inflammatory markers (IL6, Ccl2, and Ptgs1)” value in assay [4] was “decreased”. Also, the cardiac reprogramming efficiency result in assay [5] is listed as “greatly enhanced”.
As for `NC(=O)c1ccc(-c2nc(-c3ccc4c(c3)OCO4)c(-c3ccccn3)[nH]2)cc1` [SB431542], in assay [3], the cardiac reprogramming result is reported as “enhance cardiac reprogramming”.

B1: myc-epitope tag fusion HAND2 (other, not shown: small tags and cut ends)
chain: MSLVGGFPHHPVVHHEGYPFAAAAAAAAAAAASRCSHEENPYFHGWLIGHPEMSPPDYSMALSYSPEYASGAAGLDHSHYGGVPPGAGPPGLGGPRPVKRRGTANRKERRRTQSINSAFAELRECIPNVPADTKLSKIKTLRLATSYIAYLMDLLAKDDQNGEAEAFKAEIKKTDVKEEKRKKELNEILKSTVSSNDKKTKGRTGWPQHVWALELKQ
notes: Expressed in transfected HEK293 cells; The tag's position is unknown; also called Myc-tagged HAND2; Heart- and neural crest derivatives-expressed protein 2
B1: the binding result in assay [6] is recorded as “no binding”.

B2: myc-epitope tag fusion TBX5 (other, not shown: small tags and cut ends)
chain: MADADEGFGLAHTPLEPDAKDLPCDSKPESALGAPSKSPSSPQAAFTQQGMEGIKVFLHERELWLKFHEVGTEMIITKAGRRMFPSYKVKVTGLNPKTKYILLMDIVPADDHRYKFADNKWSVTGKAEPAMPGRLYVHPDSPATGAHWMRQLVSFQKLKLTNNHLDPFGHIILNSMHKYQPRLHIVKADENNGFGSKNTAFCTHVFPETAFIAVTSYQNHKITQLKIENNPFAKGFRGSDDMELHRMSRMQSKEYPVVPRSTVRQKVASNHSPFSSESRALSTSSNLGSQYQCENGVSGPSQDLLPPPNPYPLPQEHSQIYHCTKRKEEECSTTDHPYKKPYMETSPSEEDSFYRSSYPQQQGLGASYRTESAQRQACMYASSAPPSEPVPSLEDISCNTWPSMPSYSSCTVTTVQPMDRLPYQHFSAHFTSGPLVPRLAGMANHGSPQLGEGMFQHQTSVAHQPVVRQCGPQTGLQSPGTLQPPEFLYSHGVPRTLSPHQYHSVHGVGMVPEWSDNS
notes: Expressed in transfected HEK293 cells; The tag's position is unknown; also called Myc-tagged TBX5; T-box transcription factor TBX5
B2: the binding result in assay [6] is on record as “no binding”.

The values above are taken from patent US20210180023A1, “CARDIAC REPAIR BY REPROGRAMMING OF ADULT CARDIAC FIBROBLASTS INTO CARDIOMYOCYTES” (The Board of Regents of the University of Texas System, priority 2017, published 2021).
